Test in all cases: biochemical
Common to all, as to design: SelectScreen LanthaScreen kinase binding assay, per cent tracer displacement, mean of two points
Conditions in all cases: tracer displacement

One experiment has as its target MAP2K2 (MEK2) (Homo sapiens, UniProt P36507).
Experiment [1] deals with T1, MAP3K7/MAP3K7IP1 (TAK1-TAB1) (Homo sapiens, UniProt O43318).
T1 construct: TAK1-TAB1
T1 sequence (O43318 1-606): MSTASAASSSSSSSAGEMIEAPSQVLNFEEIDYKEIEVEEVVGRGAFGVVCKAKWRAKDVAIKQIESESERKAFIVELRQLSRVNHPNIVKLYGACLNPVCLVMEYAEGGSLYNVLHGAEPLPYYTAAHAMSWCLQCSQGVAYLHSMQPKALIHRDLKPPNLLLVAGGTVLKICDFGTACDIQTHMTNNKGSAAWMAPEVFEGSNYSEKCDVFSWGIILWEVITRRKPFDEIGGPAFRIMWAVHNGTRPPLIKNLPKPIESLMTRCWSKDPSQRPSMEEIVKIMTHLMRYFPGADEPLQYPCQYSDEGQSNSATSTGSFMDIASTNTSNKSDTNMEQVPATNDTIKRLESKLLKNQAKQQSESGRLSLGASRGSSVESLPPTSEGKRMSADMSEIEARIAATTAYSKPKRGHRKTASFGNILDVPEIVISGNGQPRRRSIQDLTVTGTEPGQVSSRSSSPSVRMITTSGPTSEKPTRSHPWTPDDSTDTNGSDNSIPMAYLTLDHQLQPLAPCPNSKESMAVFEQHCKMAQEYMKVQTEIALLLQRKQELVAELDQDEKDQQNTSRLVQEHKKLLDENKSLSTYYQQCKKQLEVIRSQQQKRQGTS
T1 sequence (Q15750 1-504 partner): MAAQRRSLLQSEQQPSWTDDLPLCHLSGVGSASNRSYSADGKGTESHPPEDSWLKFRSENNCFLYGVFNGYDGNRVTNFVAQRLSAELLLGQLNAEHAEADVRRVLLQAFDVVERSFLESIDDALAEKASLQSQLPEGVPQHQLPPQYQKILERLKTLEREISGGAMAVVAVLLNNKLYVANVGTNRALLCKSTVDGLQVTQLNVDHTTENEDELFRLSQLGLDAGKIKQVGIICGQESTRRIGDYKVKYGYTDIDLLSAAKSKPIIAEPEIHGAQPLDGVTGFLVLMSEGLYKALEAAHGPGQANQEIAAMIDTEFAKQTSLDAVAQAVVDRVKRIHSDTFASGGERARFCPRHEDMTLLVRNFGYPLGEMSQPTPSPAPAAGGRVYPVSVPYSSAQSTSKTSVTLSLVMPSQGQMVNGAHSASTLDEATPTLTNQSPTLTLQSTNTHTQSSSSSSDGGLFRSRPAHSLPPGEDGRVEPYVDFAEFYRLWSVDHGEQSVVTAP

In the next experiment the target is T2, STK17B (DRAK2) (Homo sapiens, UniProt O94768).
T2 sequence (O94768 1-372): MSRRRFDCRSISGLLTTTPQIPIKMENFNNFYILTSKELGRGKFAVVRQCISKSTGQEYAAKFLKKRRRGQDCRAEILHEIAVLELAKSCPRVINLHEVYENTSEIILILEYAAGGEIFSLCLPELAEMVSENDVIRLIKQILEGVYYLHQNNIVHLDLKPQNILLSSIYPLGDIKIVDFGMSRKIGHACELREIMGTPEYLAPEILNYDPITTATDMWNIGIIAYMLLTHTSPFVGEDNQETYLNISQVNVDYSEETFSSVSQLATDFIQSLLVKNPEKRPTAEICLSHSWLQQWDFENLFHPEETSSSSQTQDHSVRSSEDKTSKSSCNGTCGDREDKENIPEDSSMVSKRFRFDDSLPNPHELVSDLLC

In a further experiment the target is CDK3/cyclin E1 (Homo sapiens, UniProt Q00526).
The target in another experiment is T3, ULK2 (Homo sapiens, UniProt Q8IYT8).
T3 sequence (Q8IYT8 1-1036): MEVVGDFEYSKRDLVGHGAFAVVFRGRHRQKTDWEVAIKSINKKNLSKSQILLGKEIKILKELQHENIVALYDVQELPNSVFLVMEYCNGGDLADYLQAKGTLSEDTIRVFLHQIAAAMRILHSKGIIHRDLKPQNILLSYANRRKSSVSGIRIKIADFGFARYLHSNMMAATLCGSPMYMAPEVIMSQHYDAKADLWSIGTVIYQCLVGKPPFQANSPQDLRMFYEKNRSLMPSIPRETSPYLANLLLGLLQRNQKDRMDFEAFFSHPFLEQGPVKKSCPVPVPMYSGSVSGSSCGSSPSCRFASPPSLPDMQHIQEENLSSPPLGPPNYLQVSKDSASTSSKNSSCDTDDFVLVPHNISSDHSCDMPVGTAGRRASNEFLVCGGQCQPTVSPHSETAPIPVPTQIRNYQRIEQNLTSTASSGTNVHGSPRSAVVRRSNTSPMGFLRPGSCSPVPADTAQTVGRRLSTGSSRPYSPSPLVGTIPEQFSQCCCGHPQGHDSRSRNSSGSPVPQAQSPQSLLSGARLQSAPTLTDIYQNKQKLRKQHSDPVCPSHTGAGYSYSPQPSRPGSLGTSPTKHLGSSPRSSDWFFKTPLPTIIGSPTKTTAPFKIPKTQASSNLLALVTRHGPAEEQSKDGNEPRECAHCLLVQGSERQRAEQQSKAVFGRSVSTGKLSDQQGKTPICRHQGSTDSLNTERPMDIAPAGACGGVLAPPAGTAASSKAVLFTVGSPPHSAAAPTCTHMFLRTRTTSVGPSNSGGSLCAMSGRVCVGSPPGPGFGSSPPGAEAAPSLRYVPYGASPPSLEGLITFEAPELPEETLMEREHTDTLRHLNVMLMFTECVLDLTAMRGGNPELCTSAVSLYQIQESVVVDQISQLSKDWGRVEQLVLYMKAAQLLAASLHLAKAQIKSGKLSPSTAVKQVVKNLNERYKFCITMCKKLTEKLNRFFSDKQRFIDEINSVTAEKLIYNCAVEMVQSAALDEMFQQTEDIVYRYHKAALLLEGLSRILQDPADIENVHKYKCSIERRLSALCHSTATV

Sequence of MAP2K2 (MEK2) (P36507 whole entry): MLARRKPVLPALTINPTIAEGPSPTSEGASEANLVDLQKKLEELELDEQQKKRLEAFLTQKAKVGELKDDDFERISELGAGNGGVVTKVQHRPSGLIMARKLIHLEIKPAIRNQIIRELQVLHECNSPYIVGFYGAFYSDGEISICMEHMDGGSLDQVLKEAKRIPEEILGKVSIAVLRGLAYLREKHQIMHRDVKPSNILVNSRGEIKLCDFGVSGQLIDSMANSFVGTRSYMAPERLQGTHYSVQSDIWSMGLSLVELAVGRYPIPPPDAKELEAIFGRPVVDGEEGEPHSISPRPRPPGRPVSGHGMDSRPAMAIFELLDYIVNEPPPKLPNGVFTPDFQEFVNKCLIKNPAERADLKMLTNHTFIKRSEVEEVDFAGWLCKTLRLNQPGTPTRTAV
Sequence of CDK3/cyclin E1 (Q00526 whole entry): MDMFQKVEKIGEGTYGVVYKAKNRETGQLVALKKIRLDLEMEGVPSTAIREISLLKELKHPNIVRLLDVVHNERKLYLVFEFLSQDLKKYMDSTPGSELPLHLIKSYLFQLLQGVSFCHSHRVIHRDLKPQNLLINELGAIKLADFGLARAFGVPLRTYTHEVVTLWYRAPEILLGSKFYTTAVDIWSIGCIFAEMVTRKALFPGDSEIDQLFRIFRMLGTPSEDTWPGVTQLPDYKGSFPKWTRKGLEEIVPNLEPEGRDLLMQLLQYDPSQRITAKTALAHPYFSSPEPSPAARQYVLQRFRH
Sequence of CDK3/cyclin E1 (P24864 whole entry partner): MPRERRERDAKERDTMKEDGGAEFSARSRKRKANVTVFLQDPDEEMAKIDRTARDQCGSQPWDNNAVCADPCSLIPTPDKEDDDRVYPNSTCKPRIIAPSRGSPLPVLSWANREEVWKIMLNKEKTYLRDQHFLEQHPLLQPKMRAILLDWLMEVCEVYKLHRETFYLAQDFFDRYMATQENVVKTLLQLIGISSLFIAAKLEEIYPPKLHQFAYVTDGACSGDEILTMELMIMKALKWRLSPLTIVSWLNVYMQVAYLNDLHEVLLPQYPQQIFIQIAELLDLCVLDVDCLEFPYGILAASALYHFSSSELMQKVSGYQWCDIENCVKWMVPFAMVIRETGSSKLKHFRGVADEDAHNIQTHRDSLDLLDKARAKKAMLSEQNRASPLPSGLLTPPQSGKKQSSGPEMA

For orientation: inhibition means the relative decrease from the control value, in per cent. Regarding `O=C(CSc1nc2nccnc2c(=O)n1CCc1ccccc1)Nc1nccs1` [compound 1, PITCOIN1], the inhibition at 1 µM is -3% at MAP2K2 (MEK2); -3.93% in experiment [1]; -6.01% on STK17B (DRAK2); -0.974% at CDK3/cyclin E1; -4.11% on ULK2. For the same compound, the inhibition at 3 µM on MAP2K2 (MEK2) is 2.42%; in experiment [1], -9.87%; on STK17B (DRAK2) it was 2.55%; on CDK3/cyclin E1, -9.41%; at ULK2, -4.09%. The inhibition at 10 µM was -1.45% on MAP2K2 (MEK2); -11.5% in experiment [1]; 4.06% at STK17B (DRAK2); 1.77% at CDK3/cyclin E1; -1.99% on ULK2.

As to `CS(=O)(=O)Nc1cccc(-c2csc(NC(=O)CSc3nc4nccnc4c(=O)n3CCc3ccccc3)n2)c1` [compound 3, PITCOIN3], the inhibition at 1 µM was 0.637% at MAP2K2 (MEK2); -2.55% in experiment [1]; -7.55% on STK17B (DRAK2); 13.1% on CDK3/cyclin E1; -2.32% at ULK2. Moreover, the inhibition at 3 µM at MAP2K2 (MEK2) is 2.82%; in experiment [1], -10.1%; on STK17B (DRAK2) it was -5.4%; on CDK3/cyclin E1, 8.71%; at ULK2 it was -0.489%. The inhibition at 10 µM on MAP2K2 (MEK2) is -3.31%; in experiment [1] it was -10.1%; at STK17B (DRAK2), 11.1%; on CDK3/cyclin E1, -18.8%; on ULK2, 2.18%.
